Reference: US20220304950A1, “[…] THE TREATMENT OF PATIENTS WITH MAJOR DEPRESSIVE DISORDER, INCLUDING SUICIDALITY” (JANSSEN PHARMACEUTICALS, INC., priority 2019, published 2022)

Tested on: adult patients with MDD assessed to be at imminent risk for suicide
Test: Adverse events (TEAEs, SAEs), Study 1 (Example 4)
Experimental: This is a randomized, double-blind, placebo-controlled, multicenter study to evaluate the efficacy of intranasal esketamine 84 mg compared with intranasal placebo in addition to comprehensive standard of care in reducing the symptoms of MDD, including suicidal ideation, in adult male and female patients who were assessed to be at imminent risk for suicide.
The study consisted of a screening evaluation performed within 48 hours prior to the Day 1 intranasal dose, immediately followed by a 25-day double-blind treatment phase (Day 1 to 25), and a 65-day follow-up phase (Day 26 to Day 90). The total study duration for each subject was approximately 13 weeks.
The study consisted of a screening evaluation performed within 24 to 48 hours prior to the Day 1 dose, immediately followed by a 25-day double-blind treatment phase (Day 1 to 25) with twice-weekly dosing sessions, and a 9-week follow up phase (Day 26 to Day 90). All participants received comprehensive SOC, including in-patient psychiatric hospitalization and the initiation or optimization of standard antidepressant medication (determined by the treating physician based on clinical judgment and practice guidelines).

[1] = Esk 84 mg + SOC, double-blind phase
[2] = Esk 84 mg + SOC, double-blind phase, listed as ESK
[3] = Esk 84 mg + SOC, double-blind phase, listed as Esk
[4] = Esk 84 mg + SOC, follow-up phase

Which results are given for `CN[C@]1(c2ccccc2Cl)CCCCC1=O` [esketamine, (S)-2-(2-chlorophenyl)-2-(methylamino)cyclohexanone]?
SAEs: depression-related events, number (ESK+SOC, follow-up phase): 3; SAEs: suicidal ideation-related events, number (ESK+SOC, follow-up phase): 7; Serious TEAE Aggression, subjects n [1]: 0; Serious TEAE Depression suicidal, subjects % [1]: (1.8%); Serious TEAE Depression, subjects % [1]: (0.9%); Serious TEAE Depression, subjects n [1]: 1; Serious TEAE Diabetic ketoacidosis, subjects % [1]: (0.9%); Serious TEAE Diabetic ketoacidosis, subjects n [1]: 1; Serious TEAE Hepatobiliary disorders, subjects n [1]: 0; Serious TEAE Hypertransaminasaemia, subjects n [1]: 0; Serious TEAE Metabolism and nutrition disorders, subjects % [1]: (0.9%); Serious TEAE Metabolism and nutrition disorders, subjects n [1]: 1; Serious TEAE Psychiatric disorders, subjects n [1]: 3; Serious TEAE Suicidal ideation, subjects n [1]: 0; Serious TEAE Suicide attempt, subjects % [1]: (0.9%); Serious TEAE Suicide attempt, subjects n [1]: 1; Subjects with 1 or more TEAEs, % [1]: 88.5%; Subjects with related TEAEs, % [1]: (79.6%); Subjects with related severe TEAEs, % [1]: (6.2%); Subjects with serious TEAEs, % [1]: 3.5%; TEAE Anxiety, subjects % [1]: (5.3%); TEAE Anxiety, subjects n [1]: 6; TEAE Blood pressure increased, subjects % [1]: (16.8%); TEAE Blood pressure increased, subjects n [1]: 19; TEAE Constipation, subjects % [1]: (13.3%); TEAE Constipation, subjects n [1]: 15; TEAE Dissociation, subjects % [1]: 29.2%; TEAE Dissociation, subjects n [1]: 33; TEAE Dizziness postural, subjects % [1]: (5.3%); TEAE Dizziness postural, subjects n [1]: 6; TEAE Dizziness, subjects % [1]: 35.4%; TEAE Dizziness, subjects n [1]: 40; TEAE Dysgeusia, subjects n [1]: 16; TEAE Ear and labyrinth disorders, subjects % [1]: (8.0%); TEAE Ear and labyrinth disorders, subjects n [1]: 9; TEAE Eye disorders, subjects % [1]: (11.5%); TEAE Eye disorders, subjects n [1]: 13; TEAE Gastrointestinal disorders, subjects % [1]: (38.1%); TEAE Gastrointestinal disorders, subjects n [1]: 43; TEAE Headache, subjects n [1]: 21; TEAE Hypoaesthesia, subjects % [1]: (7.1%); TEAE Hypoaesthesia, subjects n [1]: 8; TEAE Insomnia, subjects % [1]: (6.2%); TEAE Insomnia, subjects n [1]: 7; TEAE Investigations, subjects % [1]: (24.8%); TEAE Investigations, subjects n [1]: 28; TEAE Nausea, subjects % [1]: 20.4%; TEAE Nausea, subjects n [1]: 23; TEAE Nervous system disorders, subjects % [1]: (68.1%); TEAE Nervous system disorders, subjects n [1]: 77; TEAE Psychiatric disorders, subjects % [1]: (45.1%); TEAE Psychiatric disorders, subjects n [1]: 51; TEAE Sedation, subjects % [1]: (6.2%); TEAE Sedation, subjects n [1]: 7; TEAE Somnolence, subjects n [1]: 21; TEAE Vertigo, subjects % [1]: (6.2%); TEAE Vertigo, subjects n [1]: 7; TEAE Vision blurred, subjects % [1]: (8.8%); TEAE Vision blurred, subjects n [1]: 10; TEAE Vomiting, subjects % [1]: (7.1%); TEAE Vomiting, subjects n [1]: 8; TEAE dysgeusia, subjects % [1]: (14.2%); TEAE headache, subjects % [1]: (18.6%); TEAE leading to discontinuation: Aggression, subjects n [1]: 0; TEAE leading to discontinuation: Atrioventricular block first degree, subjects n [1]: 0; TEAE leading to discontinuation: Blood pressure diastolic increased, subjects n [1]: 0; TEAE leading to discontinuation: Blood pressure increased, subjects % [1]: 0.9%; TEAE leading to discontinuation: Blood pressure increased, subjects n [1]: 1; TEAE leading to discontinuation: Cardiac disorders, subjects n [1]: 0; TEAE leading to discontinuation: Confusional state, subjects % [1]: 0.9%; TEAE leading to discontinuation: Confusional state, subjects n [1]: 1; TEAE leading to discontinuation: Dissociation, subjects % [1]: 0.9%; TEAE leading to discontinuation: Dissociation, subjects n [1]: 1; TEAE leading to discontinuation: Dizziness, subjects % [1]: 0.9%; TEAE leading to discontinuation: Dizziness, subjects n [1]: 1; TEAE leading to discontinuation: Hallucination, visual, subjects % [1]: 0.9%; TEAE leading to discontinuation: Hallucination, visual, subjects n [1]: 1; TEAE leading to discontinuation: Headache, subjects % [1]: 0.9%; TEAE leading to discontinuation: Headache, subjects n [1]: 1; TEAE leading to discontinuation: Hepatobiliary disorders, subjects n [1]: 0; TEAE leading to discontinuation: Hypertransaminasaemia, subjects n [1]: 0; TEAE leading to discontinuation: Hypoaesthesia, subjects % [1]: 0.9%; TEAE leading to discontinuation: Hypoaesthesia, subjects n [1]: 1; TEAE leading to discontinuation: Investigations, subjects % [1]: 0.9%; TEAE leading to discontinuation: Investigations, subjects n [1]: 1; TEAE leading to discontinuation: Nervous system disorders, subjects % [1]: 2.7%; TEAE leading to discontinuation: Nervous system disorders, subjects n [1]: 3; TEAE leading to discontinuation: Pharyngeal hypoaesthesia, subjects % [1]: 0.9%; TEAE leading to discontinuation: Pharyngeal hypoaesthesia, subjects n [1]: 1; TEAE leading to discontinuation: Psychiatric disorders, subjects % [1]: 2.7%; TEAE leading to discontinuation: Psychiatric disorders, subjects n [1]: 3; TEAE leading to discontinuation: Respiratory, thoracic and mediastinal disorders, subjects % [1]: 0.9%; TEAE leading to discontinuation: Respiratory, thoracic and mediastinal disorders, subjects n [1]: 1; TEAE leading to discontinuation: Sedation, subjects % [1]: 0.9%; TEAE leading to discontinuation: Sedation, subjects n [1]: 1; TEAE leading to discontinuation: Somnolence, subjects % [1]: 0.9%; TEAE leading to discontinuation: Somnolence, subjects n [1]: 1; TEAE leading to discontinuation: Suicidal ideation, subjects n [1]: 0; TEAE somnolence, subjects % [1]: (18.6%); Serious TEAE Depression suicidal, subjects n [2]: 1; Serious TEAE Psychiatric disorders, subjects % [2]: < 5%; Subjects with severe TEAEs, % [2]: 8.8%; Serious TEAE Depression suicidal, subjects n [3]: 2; Serious TEAE Psychiatric disorders, subjects % [3]: (2.7%); Subjects with 1 or more TEAEs, % [3]: (88.5%); Subjects with serious TEAEs, % [3]: (3.5%); Subjects with severe TEAEs, % [3]: (8.8%); TEAE Dissociation, subjects % [3]: (29.2%); TEAE Dizziness, subjects % [3]: (35.4%); TEAE Nausea, subjects % [3]: (20.4%); Subjects with TEAEs leading to discontinuation of study agent, % (Esk 84 mg + SOC, double-blind phase, safety set): 4.4%; AE Anxiety, subjects % [4]: (3.0%); AE Anxiety, subjects n [4]: 3; AE Depression, subjects % [4]: (8.9%); AE Depression, subjects n [4]: 9; AE Headache, subjects % [4]: (5.9%); AE Headache, subjects n [4]: 6; AE Nervous system disorders, subjects % [4]: (11.9%); AE Nervous system disorders, subjects n [4]: 12; AE Psychiatric disorders, subjects % [4]: (28.7%); AE Psychiatric disorders, subjects n [4]: 29; AE Suicidal ideation, subjects % [4]: (5.0%); AE Suicidal ideation, subjects n [4]: 5; SAE Completed suicide, subjects % [4]: (1.0%); SAE Completed suicide, subjects n [4]: 1; SAE Depression suicidal, subjects % [4]: (5.0%); SAE Depression suicidal, subjects n [4]: 5; SAE Depression, subjects % [4]: (1.0%); SAE Depression, subjects n [4]: 1; SAE Depressive symptom, subjects % [4]: (1.0%); SAE Depressive symptom, subjects n [4]: 1; SAE Major depression, subjects % [4]: (1.0%); SAE Major depression, subjects n [4]: 1; SAE Musculoskeletal and connective tissue disorders, subjects n [4]: 0; SAE Psychiatric disorders, subjects % [4]: (12.9%); SAE Psychiatric disorders, subjects n [4]: 13; SAE Rhabdomyolysis, subjects n [4]: 0; SAE Suicidal ideation, subjects % [4]: (2.0%); SAE Suicidal ideation, subjects n [4]: 2; SAE Suicide attempt, subjects % [4]: (3.0%); SAE Suicide attempt, subjects n [4]: 3; Subjects with 1 or more AEs, % [4]: (48.5%); Subjects with AEs leading to death, % [4]: (1.0%); Subjects with serious AEs, % [4]: 12.9%; Subjects with severe AEs, % [4]: (5.9%); Subjects with serious AEs, % (Esk 84 mg + SOC, follow-up phase, listed as Esk): (12.9%); Overall safety and tolerability (in words) (intranasal ESK+SOC): safe and tolerated
